Format in all cases: cell-based
The subject of data set [1] is U87 and U251 cells. Description: Cell cycle analysis in GBM cells. As to conditions: after 72 h. Here is the method:
[…] At the end point, at least 5 × 10^6 cells were harvested, washed with phosphate buffer saline (PBS), and fixed overnight with 70% ethanol. Then, ethanol was removed by centrifugation, and the cells were resuspended in PBS and stained with 50 μg/mL propidium iodide (PI) at 4 °C for 30 min in the dark. Stained cells were analyzed by a Tali image-based cytometer (Life Technologies, Carlsbad, CA, USA) counting 20 fields per sample, and exported fcs raw data were elaborated by Flowing software (v. 2.5.0, by Perttu Terho, University of Turku, Finland).
To better characterize the antiproliferative effect of BA103, we performed further biological evaluation using GBM cell lines. The expression of DDX3X was evaluated in U87 and U251 cell lines by Western blot analysis in comparison with HepG2 cells, resulting in basally detectable mainly in U87 cells (Figure 6A). […] Cell cycle experiments were performed in normal conditions (CTR) and in the presence of BA103 at 1 µM and 10 µM concentrations for 48 h and 72 h. […] Thus, also according to the importance of β-catenin signaling in GBM, we analyzed whether the expression of β-catenin in U87 and U251 cells could be associated with DDX3X activity. GBM cells were treated with BA103 for 48 h, and then, β-catenin expression was evaluated by Western blot analysis and immunofluorescence analysis (Figure 7A,B, respectively). […]

Data set [2] deals with U87 and U251 cells. The data set is described as follows: Transwell migration assay in GBM cells. The conditions noted are these: 48 h of incubation, vs untreated cells. Here is the method: Exponential growing cells were treated with the inhibitor or vehicle for 48 h and then trypsinized, washed twice with PBS, rinsed in complete medium, incubated at 37 °C for 30 min to reconstitute the membrane structures, washed again for FCS removal, and then added to the upper compartment of collagen-coated (PTFE) Transwell insert (Corning Inc., Corning, NY, USA). Cells were allowed to migrate through coated filters for 6 h. The cells attached on the lower membrane surfaces were stained with 0.1% crystal violet w/v in 0.1 mol/L borate, pH 9.0, and 2% ethanol v/v for 20 min at room temperature. Cells were counted at 400× magnification in standard optical microscopy, and the average number of cells per field in 5 random fields was recorded. Triplicate filters were used, and the experiments were repeated at least two times.
(§1) To better characterize the antiproliferative effect of BA103, we performed further biological evaluation using GBM cell lines. The expression of DDX3X was evaluated in U87 and U251 cell lines by Western blot analysis in comparison with HepG2 cells, resulting in basally detectable mainly in U87 cells (Figure 6A). […] Thus, also according to the importance of β-catenin signaling in GBM, we analyzed whether the expression of β-catenin in U87 and U251 cells could be associated with DDX3X activity. […]

The subject of data set [3] is DDX3X. The data set is described as follows: DDX3X protein expression by Western blot in GBM cells. As to conditions: 24 h of treatment. Here is the method:
Cells were incubated for 15 min in lysis buffer containing 1% triton, 0.1% SDS, 2 mmol/L CaCl2, 10 mg/mL orthovanadate, and 1× protease inhibitors cocktail (Sigma-Aldrich, St. Louis, MO, USA). Forty micrograms of proteins were electrophoresed in 12% SDS-polyacrylamide gel, and then, the gel was placed onto a Trans-Blot Turbo mini nitrocellulose transfer pack and transferred using a Trans-Blot Turbo Transfer System (Bio-Rad Laboratories, Hercules, CA, USA). The membrane was incubated with […] primary antibody and then with […] horseradish peroxidase (HRP)-conjugated secondary antibodies (Santa Cruz Biotechnology, Dallas, TX, USA). […]
as §1, with “activity. GBM cells were treated with BA103 for 48 h, and then, β-catenin expression was evaluated by Western blot analysis and immunofluorescence analysis (Figure 7A,B, respectively).” for “activity.”

Data set [4] deals with HN6. The data set is described as follows: MTS cytotoxicity assay, HN6 cells. The conditions noted are these: HN6, 72 h. The method, then: (§2) For CellTiter 96® Aqueous One Solution Cell Proliferation Assay (MTS) (Promega, Madison, WI, USA), cells were seeded at 5 × 10^3 per well in 96-well plates in quadruplicate together a control with no cells to evaluate the background. After 24 h, the culture medium was removed, and fresh medium containing increasing concentrations of chemical compounds was added to cells. The fixed final concentrations were 0.1 μM, 1 μM, 10 μM, and 100 μM. DMSO was the vehicle used for dilution of the compounds, and its final concentration on cells was less than 0.2%. Medium-only containing wells were included as controls. […] After 3 h at 37 °C in a humidified, 5% CO2 atmosphere, the absorbance at 492 nm was recorded using an EZREAD400 (Biochrom, Cambridge, United Kingdom) plate reader. The average 490 nm absorbance from the “no cell” control wells was subtracted from all other values to yield background-corrected absorbance. Dose–response curves and CC50 values have been calculated by plotting the absorbance data as a function of inhibitor concentrations and fitting the data by least-squares nonlinear regression, according to the method of Marquardt–Levenberg, with the computer program GraphPad Prism 6.0.
(§3) Cells were incubated with a scalar concentration of DDX3X inhibitors, and after 72 h of treatment, cell viability was assessed by cytotoxicity assay. […]

Data set [5] deals with DU-145. Description: MTS cytotoxicity assay, DU-145 cells. As to conditions: DU-145, 72 h. The method, then: as §2, §3

`CCCCc1cn(-c2ccc(NC(=O)Nc3ccccc3C(F)(F)F)cc2)nn1` [BA103, 1-(4-(4-Butyl-1H-1,2,3-triazol-1-yl)phenyl)-3-(2-(trifluoromethyl)phenyl)urea]: in data set [1], the “cell cycle distribution” value is “significant accumulation of cells in the G0/G1 phase”. For the same compound, the “migration through collagen-coated Transwell filters” value in data set [2] is recorded as “reduced ability to migrate”. In data set [3], the “expression of DDX3X” value was “reduction in the expression of DDX3X”. Also, the “CC50” value in data set [4] and in data set [5] was “low micromolar range” in each case.

These data come from publication PMC8582824, “Targeting DDX3X Helicase Activity with BA103 Shows Promising Therapeutic Effects in Preclinical Glioblastoma Models” (Cancers, 2021).
